The source of these data is US20240182449A1, “CRYSTALLINE FORMS OF AN MK2 INHIBITOR” (XinThera, Inc., priority 2022, published 2024).

Series [1] is described as follows: Salt screening with strong acids (chemical stability, HPLC purity). Format: physicochemical. As for the experimental part:
A salt screening was conducted with 6 pharmaceutically acceptable strong acids. About 25 mg of compound 1 was weighed into a 1.5-mL glass vial, then 1.1 eq. of selected acid was weighted into the above glass vial. Liquid strong acid was pre-diluted in corresponding solvent. After addition of 0.5 mL solvent, the mixture was stirred at RT for 24 h. 0.5 mL more solvent was added to dilute several viscous systems at 4 h (highlighted as * in the summary table). If no solid was obtained, anti-solvent of heptane was added into the filtrates gradually at RT to induce precipitation (highlighted as ** in the summary table). The suspensions were filtered and the solids were vacuum dried at 40° C. for 4 h.
HPLC results (Table 33) confirmed significant purity decrease by>15%.

Series [2] is described as follows: Slurry competition experiments (thermodynamic stability relationship). The series is classed as physicochemical. The settings on record: RT. As for the experimental part: Slurry competition experiments were carried out between anhydrous and hydrates, to establish stability relationships. Appropriate amount of Form I was suspended in different solvents for pre-saturation at RT. Then the filtrate was added into equal amount of different forms, and the mixture was kept stirring at RT for certain time before XRPD tests.

Series [3] is described as follows: Solubility estimation at RT by visual observation in selected solvent systems. The conditions noted are these: RT. As for the experimental part:
The solubility of compound 1 Form I and Form X was estimated at RT by visual observation in selected solvent systems. Approximately 5 mg solids were weighed into 8 mL glass vial, and then solvent was added stepwise until solids were dissolved completely or a total of solvent volume reached 5 mL.

Series [4] is described as follows: Slurry conversion of Form I and Form X in solvents (XRPD result). Format: physicochemical. The settings on record: for XRPD Result-Day 3: slurry at 80° C. As for the experimental part: Appropriate amount of Form I was added into different solvents to make suspensions, which were kept stirring at RT and 50° C. for 3 and 7 days, and at 80° C. for 3 days. Solid samples were collected by centrifugation and analyzed by XRPD. Forms I-IV, VII and VIII were obtained by slurry experiments of Form I.
Appropriate amount of Form X was added into different solvents to make suspensions, which were kept stirring at RT and 50° C. for 3 and 7 days, and at 80° C. for 3 days. Solid samples were collected by centrifugation and analyzed by XRPD.

Test in series [5]: as above
The series is classed as physicochemical. The settings on record: slurry at RT, Toluene.

Setting [6] is: slurry at 50° C., 2-MeTHF/CYH (1/4).
The mark [7] stands for this setting: slurry at 50° C., ACN/water (1/9).
[8] abbreviates: slurry at 50° C., Acetone/water (1/4).
The mark [9] stands for this setting: slurry at 50° C., IPAc/heptane (1/4).
Setting [10] is: slurry at 50° C., IPE/water (200/1).
[11] abbreviates: slurry at 50° C., Toluene/heptane (1/4).
The mark [12] stands for this setting: slurry at RT, Acetone/water (1/4).
[13] abbreviates: slurry at RT, IPAc/heptane (1/4).
Where [14] appears, read: slurry at RT, IPE/water (200/1).
The mark [15] stands for this setting: slurry at RT, Toluene/heptane (1/4).

`[2H]C([2H])(Oc1cc(C)n(-c2c(C)cnc(-n3ccc(C(C)(C)O)n3)c2F)c(=O)c1Cl)c1ncc(F)cc1F` [Form I, starting material]: in series [1] (salt screening samples, HPLC, chemical stability under strong acid), the “Purity (area %)” value worked out at 99.29 area %.
For the compound `[2H]C([2H])(Oc1cc(C)n(-c2c(C)cnc(-n3ccc(C(C)(C)O)n3)c2F)c(=O)c1Cl)c1ncc(F)cc1F` (atropisomer, axis not shown; (M)) [compound 1, (M)-3-chloro-4-((3,5-difluoropyridin-2-yl)methoxy-d2)-3′-fluoro-2′-(3-(2-hydroxypropan-2-yl)-1H-pyrazol-1-yl)-5′,6-dimethyl-2H-[1,4′-bipyridin]-2-one], the “chemical stability under strong acidic conditions” value in series [1] (salt screening with 6 strong acids) is listed as “chemically unstable”.
On to `[2H]C([2H])(Oc1cc(C)n(-c2c(C)cnc(-n3ccc(C(C)(C)O)n3)c2F)c(=O)c1Cl)c1ncc(F)cc1F` [Form I + IV], for which the “Output of competitive slurry (XRPD)” value is given as “Form IV” in series [2] (Water, 3 d); “Form IV + IX” in series [2] (Water/MeOH (9/1), 3 d); “Form IV + IX” in series [2] (Water/MeOH (19/1), 3 d).
Turning to `[2H]C([2H])(Oc1cc(C)n(-c2c(C)cnc(-n3ccc(C(C)(C)O)n3)c2F)c(=O)c1Cl)c1ncc(F)cc1F` [Form IV + X], the “Output of competitive slurry (XRPD)” value in series [2] (Water, 2 d) is reported as “Form X”.
`[2H]C([2H])(Oc1cc(C)n(-c2c(C)cnc(-n3ccc(C(C)(C)O)n3)c2F)c(=O)c1Cl)c1ncc(F)cc1F` [Form IV + IX]: the “Output of competitive slurry (XRPD)” value is “Form X + IV (trace)” in series [2] (Water, 3 d); “Form X + IV” in series [2] (Water/MeOH (9/1), 3 d); “Form X” in series [2] (Water/MeOH (17/3), 3 d); “Form X” in series [2] (Water/MeOH (19/1), 3 d).
In the case of `[2H]C([2H])(Oc1cc(C)n(-c2c(C)cnc(-n3ccc(C(C)(C)O)n3)c2F)c(=O)c1Cl)c1ncc(F)cc1F` [Form VIII], the “Output of competitive slurry (XRPD)” value in series [2] (Water, 1 d) is “Form I”.
Take `[2H]C([2H])(Oc1cc(C)n(-c2c(C)cnc(-n3ccc(C(C)(C)O)n3)c2F)c(=O)c1Cl)c1ncc(F)cc1F` [Form I]: the “Estimated Solubility” value is below 1000 µg/mL in series [3] (CYH); below 1000 µg/mL in series [3] (Heptane); below 1000 µg/mL in series [3] (IPE); below 1000 µg/mL in series [3] (Water); above 100000 µg/mL in series [3] (visual observation, most tested solvents). For the same compound, the “XRPD Result Day 3” value in series [4] (setting [6]) is given as “Form VII”; in series [4] (setting [7]) it was “Form IV”; in series [4] (setting [8]), “Form IV”; in series [4] (slurry at 50° C., CYH), “Form IV”; in series [4] (slurry at 50° C., Heptane), “Form IV”; in series [4] (setting [9]), “Form IV + VIII”. For the same compound, the “XRPD Result Day 3” value in series [4] (slurry at 50° C., IPE) is recorded as “Form IV”; in series [4] (setting [10]) it was “Form IV”; in series [4] (slurry at 50° C., MTBE), “Form III”; in series [4] (slurry at 50° C., MeCYH), “Form IV”; in series [4] (slurry at 50° C., Toluene), “Clear”; in series [4] (setting [11]), “Form IV”. The “XRPD Result Day 3” value was “Form IV” in series [4] (slurry at 50° C., Water); “Form IV” in series [4] (slurry at RT, ACN/water (1/9)); “Form VII” in series [4] (setting [12]); “Form I” in series [4] (slurry at RT, CYH); “Form I” in series [4] (slurry at RT, Heptane); “Form IV” in series [4] (setting [13]). The “XRPD Result Day 3” value in series [4] (setting [14]) is given as “Form IV”; in series [4] (slurry at RT, MTBE) it was “Form III”; in series [4] (slurry at RT, MeCYH), “Form I”; in series [4] (slurry at RT, Toluene), “Gel-like on the wall”; in series [4] (setting [15]), “Form IV”; in series [4] (slurry at RT, Water) it was “Form I”. Moreover, the “XRPD Result Day 7” value in series [4] (setting [6]) is listed as “Form III”; in series [4] (setting [7]) it was “Form IV”; in series [4] (setting [8]) it was “Form IV”; in series [4] (slurry at 50° C., CYH) it was “Form IV”; in series [4] (slurry at 50° C., Heptane), “Form IV”; in series [4] (setting [9]), “Form IV + VIII”. Besides, the “XRPD Result Day 7” value is listed as “Form IV + VIII” in series [4] (slurry at 50° C., IPE); “Form IV” in series [4] (setting [10]); “Form III” in series [4] (slurry at 50° C., MTBE); “Form IV” in series [4] (slurry at 50° C., MeCYH); “Clear” in series [4] (slurry at 50° C., Toluene); “Form IV” in series [4] (setting [11]). For the same compound, the “XRPD Result Day 7” value was “Form IV” in series [4] (slurry at 50° C., Water); “Form IV” in series [4] (slurry at RT, ACN/water (1/9)); “Form VII” in series [4] (setting [12]); “Form I” in series [4] (slurry at RT, CYH); “Form I” in series [4] (slurry at RT, Heptane); “Form IV” in series [4] (setting [13]). Further, the “XRPD Result Day 7” value in series [4] (setting [14]) was “Form IV”; in series [4] (slurry at RT, MTBE), “Form III”; in series [4] (slurry at RT, MeCYH), “Form I”; in series [4] (slurry at RT, Toluene), “Gel-like on the wall”; in series [4] (setting [15]) it was “Form IV”; in series [4] (slurry at RT, Water) it was “Form I”. Also, the “XRPD Result-Day 3” value in series [4] (CYH) is reported as “Form VIII”; in series [4] (Heptane), “Form VIII”; in series [4] (MeCYH), “Form VIII”; in series [4] (Water), “Form IV”. In series [5], the “XRPD Result (6 d)” value is listed as “Form IV (6 d)”.
